Experiments:
[1] = test system: MDA-MB-436 cells; test: Wound healing migration with BAPTA-AM, MDA-MB-436 cells; type: cell-based, human; details: MDA-MB-436 cells expressing miR-708, BAPTA-AM 20 μM, 48 hours
Protocol: (§1) Cells were plated in triplicate into 6-well plates (5×10^5 cell/well) and cultured in DMEM containing 10% FBS. A scratch wounded was generated using sterile plastic 200 μl pipette tip, and floating debris removed by washing with PBS. Cell migration was photographed and measured under phase-contrast microscopy. To measure cell migration after depletion of intracellular calcium, a scratch was made and the wound healing was monitored for 48 hr in the presence of 20 μM of BAPTA-AM (Invitrogen). The percentage of wound healed area was measured as a ratio of occupied area to the total area using Image J program (NIH).

[2] = test system: MDA cells; test: Wound healing / transwell migration with BAPTA-AM, MDA cells; type: cell-based, human; details: 20 μM BAPTA-AM
Protocol: as §1

Question: Which results are given for `CC(=O)OCOC(=O)CN(CC(=O)OCOC(C)=O)c1ccccc1OCCOc1ccccc1N(CC(=O)OCOC(C)=O)CC(=O)OCOC(C)=O` [BAPTA-AM]?
Answer: cell migration [1]: rescued the migration defects; cell migration ([2]; MDA control cells): dramatic impairment; cell migration ([2]; MDA-miR708 cells): remained less affected
